Test results reported in patent US20080308744A1 (Beth Israel Deaconess Medical Center, priority 2003, published 2008).

Assays:
[1] = Quantum yield measurements; assay type: physicochemical; conditions: compared to QD
[2] = Fluorescence spectrometry: relative fluorescent yield of 800 nm contrast agents; assay type: physicochemical
Protocol: The performance of these agents in rat and pig model systems of SLN mapping for the skin, gastrointestinal tract and lung were also quantitated.
All of the samples were diluted with PBS, pH7.8, or with 100% FBS according to absorbance at λmax using 1-cm path length quartz spectrometer cell, and excited at 770 nm. Fluorescence was measured by calculating the area under the curve of the intensity from 785 nm to 950 nm subtracting the fluorescence of control PBS, pH 7.8.

[3] = in DMSO; cited from earlier work
[4] = Behaviour of the free dye in blood (description); conditions: small molecule form

| SMILES | quantum yield ([1]; in FBS) | quantum yield ([1]; in PBS) | relative per molecule fluorescent yield to QDs ([2]; in 100% fetal bovine serum) | relative per molecule fluorescent yield to QDs ([2]; in phosphate-buffered saline) | quantum yield (control) [3] | solubility in blood [4] | in vivo early half-life |
| --- | --- | --- | --- | --- | --- | --- | --- |
| CC1(C)C(/C=C/C2=C(Oc3ccc(S(=O)(=O)O)cc3)C(=C/C=C3/N(CCCCS(=O)(=O)O)c4ccc(S(=O)(=O)[O-])cc4C3(C)C)/CCC2)=[N+](CCCCCC(=O)O)c2ccc(S(=O)(=O)O)cc21 [800CW] | rather higher | same as that of QD | 1.0 | 0.4 |  |  |  |
| CC1(C)C(/C=C/C=C/C=C/C=C2\N(CCCCS(=O)(=O)O)c3ccc4ccccc4c3C2(C)C)=[N+](CCCCS(=O)(=O)[O-])c2ccc3ccccc3c21 [ICG, indocyanine green] |  |  | 0.4 | 0.1 | 13% | somewhat less soluble in blood | shorter half-life |
